In series [1] the test system is Staphylococcus aureus LMG 21674 (FUSR). Kind of series: Direct antibacterial activity, broth microdilution MIC. The class given is cell-based. As to conditions: for MIC: Staphylococcus aureus. As for the experimental part: (§1) Two types of antibacterial assays were employed as previously described. All the samples, essential oils, mixtures of essential oil types, and individual compounds were evaluated alone (direct activity) or in association with an antibiotic (indirect activity) at a sub-MIC concentration (non-active concentration). The tested strains were the Gram-positive Staphylococcus aureus LMG 15,975 (methicillin-resistant S. aureus, abbreviated as MRSA) and S. aureus LMG 21,674 (fusidic-acid-resistant S. aureus, abbreviated as FUSR). The chosen antibiotics were penicillin V and fusidic acid. The broth microdilution method in 96-well plates was used to determine the minimum inhibitory concentration (MIC). For the direct activity, samples were serially diluted to achieve a concentration ranging from 1 mg/mL to 2 μg/mL. For the indirect activity, the antibiotic was first serially diluted (from 64 to 7.103 μg/mL) and the samples were subsequently added to the wells at the defined sub-MIC concentration. These ranges were chosen because above them the sample is considered as non-active. For both assays, the inoculum was prepared from a suspension of 24-hour colonies to obtain a turbidity of 0.5 McFarland and added to the wells to achieve a final concentration of 5 × 10^5 CFU/mL. Plates were then incubated at 37 °C overnight and MTT (0.8 mg/mL) was used to determine the MIC by naked eye. A growth (Mueller–Hinton broth medium with inoculum) and a non-growth (only MHB) control were carried out. In addition, antibiotics were also always tested alone as positive controls.
For orientation: In broth dilution the organism is exposed to a series of concentrations in liquid medium.

The subject of series [2] is Staphylococcus aureus LMG 15975 (MRSA). Described as above. The class given is cell-based. As to conditions: read-out: Direct Activity MRSA MIC. How it is done: as §1
Series [3] concerns MRSA strains. As to conditions: same strain and other MRSA strains; cited from earlier work.
In series [4] the test system is human lung cells. As to conditions: cited from earlier work.
The subject of series [5] is Staphylococcus aureus LMG 15975 (MRSA). Kind of series: Indirect antibacterial activity in association with penicillin V. The class given is cell-based. As to conditions: sample at sub-MIC, versus penicillin V alone (4 μg/mL).
Description: as §1, with “All the samples, essential oils, mixtures of essential oil types, and individual compounds were evaluated alone (direct activity) or in association with an antibiotic (indirect activity) at a sub-MIC concentration (non-active concentration).” left out
(§2) The indirect activity presented in this study made use of a different method to test synergistic effects between two compounds. The difference with the traditional checkerboard method was that compound A (antibiotic) was serially diluted and compound B (essential oil/pure metabolite or homemade mixture) was added at a fix sub-MIC concentration, determined under the cytotoxic activity threshold. […] An indirect activity is observed when the MIC of the association is lower than the MIC of the antibiotic alone.

Series [6] can be described thus: Cytotoxic activity, colorimetric MTT assay on keratinocytes. The class given is cell-based. As to conditions: human, HaCaT keratinocyte cells, interpretation proposed by Döll-Boscardin et al. How it is done:
The effect of each essential oil on the global growth of the cell line was investigated through a colorimetric MTT assay as previously described. Briefly, human keratinocytes cells (HaCaT) were grown in RPMI supplemented with 10% fetal bovine serum and 0.5% penicillin-streptomycin and seeded at a density of 10 000 cells/mL in 96-well plates. […] The contact time of incubation was 72 h. Finally, after 3 to 5 hours of incubation with the MTT (0.5 mg/mL), the plates were centrifuged at 1200 rpm for 5 min, the supernatant was discarded, and the formazan crystals formed dissolved in DMSO. A spectrophotometer (680XR, BioRad, Hercules, CA, USA) was used to measure the absorbance (at 570 and 630 nm), which can be directly correlated to the number of viable cells (cell viability (% RC) = (absorbance of treated cells/absorbance of control) × 100).
On the technique in general: Tetrazolium assays rely on reduction of a dye to a coloured formazan, in cell work by metabolically active cells.

The subject of series [7] is Staphylococcus aureus LMG 21674 (FUSR). Kind of series: Indirect antibacterial activity in association with penicillin V. As to conditions: sample at sub-MIC, versus penicillin V alone (16 μg/mL). Format: cell-based.
Description: as §1, with “All the samples, essential oils, mixtures of essential oil types, and individual compounds were evaluated alone (direct activity) or in association with an antibiotic (indirect activity) at a sub-MIC concentration (non-active concentration).” left out
as §2

Series [8] deals with S. aureus ATCC 25923 (MSSA). On the set-up: method as in PMID 16619365. As to conditions: cited from earlier work.
For series [9], the system named is S. aureus MTCC 7405. On the set-up: method as in Dahham et al. (2015). As to conditions: ref Dahham et al. (2015); cited from earlier work.
Series [10] concerns green monkey kidney, mouse fibroblast, human retinal ganglion, and human colon fibroblast cell lines. As to conditions: cited from earlier work.
Series [11] deals with MSSA (ATCC 29,213). On the set-up: method as in PMID 32629822. As to conditions: cited from earlier work.
Where [12] appears, read: LMG21674, sample alone, broth microdilution, median, read-out: Direct Activity FUSR MIC.
Where [13] appears, read: sample alone, broth microdilution, median.

Data on ten compounds can be found in article PMC8156816, “Antibacterial Activities of Homemade Matrices Miming Essential Oils Compared to Commercial Ones” (Antibiotics, 2021).

Converted amounts (≈) assume the structure as drawn. Like-named read-outs stand apart in the source and are kept apart here.

Consider `CC1(C)S[C@@H]2[C@H](NC(=O)COc3ccccc3)C(=O)N2[C@H]1C(=O)O` [PEN V, penicillin V], for which the MIC (in general, the lowest concentration found to suppress growth) in series [1] (setting [12]) turned out to be 16 µg/mL (≈ 45.7 µM); in series [2] (setting [13]), 4 µg/mL (≈ 11.4 µM).
For the compound `C=CC(=C)CCC=C(C)C` [β-myrcene], the minimal inhibitory concentration (MIC) in series [1] (setting [12]) and in series [2] (setting [13]) was > 1000 µg/mL each time.
In the case of `CC1=CCC(C(C)C)=CC1` [γ-terpinene], the MIC in [1] (setting [12]) and in series [2] (setting [13]) was > 1000 µg/mL throughout. In series [1] (setting [13]), the “Direct Activity FUSR MIC” value is “No direct activity”.
Turning to `Cc1ccc(C(C)C)cc1` [p-cymene], the MIC in series [1] (setting [12]) and in [2] (setting [13]) was > 1000 µg/mL in each case. Besides, the “Direct Activity FUSR MIC” value in series [1] (setting [13]) is recorded as “No direct activity”.
On to `C=C1CCC2CC1C2(C)C` (stereo not drawn) [β-pinene], for which the figures for the MIC in [1] (setting [12]) and in series [2] (setting [13]) were 250 µg/mL (≈ 1840 µM) and > 1000 µg/mL, respectively.
As for `CC(=O)O[C@H]1C[C@@]2(C)[C@@H](C[C@@H](O)[C@H]3[C@@]4(C)CC[C@@H](O)[C@@H](C)[C@@H]4CC[C@@]32C)/C1=C(\CCC=C(C)C)C(=O)O` [fusidic acid], the MIC in series [1] (setting [12]) was found to be 256 µg/mL (≈ 495 µM).
For the compound `Cc1ccc(C(C)C)c(O)c1` [Thymol], the minimum inhibitory concentration (MIC) in series [1] (setting [12]) is 125 µg/mL (≈ 832 µM); in [2] (setting [13]), 250 µg/mL (≈ 1660 µM); in series [3] it was “around 600 μg/mL”. For the same compound, the cytotoxicity result in [4] is listed as “low cytotoxicity”. Besides, the “decrease of the MIC of penicillin V on MRSA” value (“decrease of the MIC … on MRSA” below) in series [5] was determined as 4 fold.
Regarding `C=CC(C)(O)CCC=C(C)C` (stereo not shown) [Linalool], the concentration for half-maximal inhibition (IC50) (as a rule, the concentration that gives 50% inhibition) at 72 h in [6] was < 31.3 µg/mL. Moreover, the MIC in series [1] (setting [12]) and in [2] (setting [13]) was > 1000 µg/mL each time.
As to `Cc1ccc(C(C)C)cc1O` [Carvacrol], the MIC in [1] (LMG21674, read-out: Direct Activity FUSR MIC) turned out to be 62.5 µg/mL (≈ 416 µM); in series [2], 250 µg/mL (≈ 1660 µM). Moreover, the cytotoxicity entry in [4] is “low cytotoxicity”. The “decrease of the MIC of penicillin V on FUSR S. aureus” value in series [7] was determined as 4 fold. The “decrease of the MIC … on MRSA” value in [5] was found to be 4 fold.
Take `C=C1CC/C=C(\C)CC[C@@H]2[C@@H]1CC2(C)C` [β-caryophyllene]: the MIC is 5.1 µg/mL (≈ 25 µM) in series [8], 31.3 µg/mL (≈ 153 µM) in series [1] (setting [12]), > 1000 µg/mL in [2] (setting [13]) and 313 µg/mL (≈ 1530 µM) in [11]. In addition, the “MIC compared with kanamycin” value in series [9] was “a better MIC on S. aureus MTCC 7405 than the kanamycin”. Also, the cytotoxic effect result in series [10] is “low cytotoxic effect”. Moreover, in series [7], the “decrease of the MIC of penicillin V on FUSR S. aureus” value was 267 fold. Further, in series [5], the “decrease of the MIC … on MRSA” value is given as 4 fold.
